Experiments:
Format in all cases: physicochemical
[1] = 1H NMR check of the stability of the salt in amorphous form samples; details: several samples of the amorphous form, CDCl3
Method: In addition, several samples of the amorphous form obtained were analyzed by ^1H NMR in order to check the stability of the salt (FIG. 2 is a ^1H NMR spectrum of the amorphous phase).
Proton nuclear magnetic resonance analyses were recorded in deuterated chloroform (CDCl3) in a Bruker Avance 400 Ultrashield NMR spectrometer, equipped with a z-gradient 5 mm BBO (Broadband Observe) probe with ATM and an automatic BACS-120 autosampler. Spectra were acquired solving 2-10 mg of sample in 0.6 mL of deuterated solvent.

[2] = Drying experiments of the amorphous phase for four hours at different temperatures, solid analyzed by PXRD; details: for Solid phase after drying: PXRD
Method: (§1) Approximately 20 mg of the non manipulated samples were prepared in standard sample holders using two foils of polyacetate.
(§2) Powder diffraction patterns were acquired on a D8 Advance Series 2Theta/Theta powder diffraction system using CuKα-radiation in transmission geometry (Wavelength: 1.54060 Å). The system was equipped with a VANTEC-1 single photon counting PSD, a Germanium monochromator, a ninety positions auto changer sample stage, fixed divergence slits and radial soller. Programs used: Data collection with DIFFRAC plus XRD Commander V.2.5.1 and evaluation with EVA V.12.0.
In order to test the stability of the amorphous phase and to investigate its stability, different portions of the amorphous phase were dried for four hours at different temperatures (table 5). Once the samples were dried the solid was analyzed by PXRD.

[3] = Drying experiments of the amorphous phase under vacuum (5-7 mbar) at different temperatures and times, solid analyzed by PXRD; details: for Solid phase after drying under vacuum: PXRD
Method: as §1, §2
In a second experiment, different portions of the amorphous phase were dried under vacuum conditions (5-7 mbar) at room temperature, 40° C. and 60° C. for different times (4, 8, 16 and 24 hours; table 6). Once the samples were dried, the solid was analyzed by PXRD. […] In the experiments performed at 40° C. the amorphous phase began to crystallize after 16 hours. In the experiments performed at 60° C. the amorphous phase began to crystallize after 8 hours and phase I could be clearly identified after 16 hours.

Compound: Cc1cc(OCCN2CCOCC2)nn1-c1ccc2ccccc2c1.Cl [amorphous phase, 4-[2-[[5-methyl-1-(2-naphthalenyl)-1H-pyrazol-3-yl]oxy]ethyl]morpholine hydrochloride]
- Stability of the salt by 1H NMR [1]: no signs of the lost of HCl or decomposition of the samples could be observed
- Solid phase after drying ([2]; Sample 1: dried four hours at rt): amorphous
- Solid phase after drying ([2]; Sample 2: dried four hours at 40 °C): amorphous
- Solid phase after drying ([2]; Sample 3: dried four hours at 50 °C): amorphous
- Solid phase after drying ([2]; Sample 4: dried four hours at 60 °C): amorphous
- Solid phase after drying ([2]; Sample 5: dried four hours at 80 °C): amorphous + crystalline
- Solid phase after drying ([2]; Sample 6: dried four hours at 90 °C): amorphous + crystalline
- Solid phase after drying ([2]; Sample 7: dried four hours at 100 °C): phase I + crystalline
- Solid phase after drying ([2]; Sample 8: dried four hours at 110 °C): phase I
- Solid phase after drying ([2]; Sample 9: dried four hours at 120 °C): phase I
- Stability of the amorphous phase on drying ([2]; four hours at temperature higher than 100° C.): transformed clearly to phase I
- Stability of the amorphous phase on drying ([2]; temperatures over 60° C., four hours): transformed slightly to a crystalline phase, not clearly identified
- Stability of the amorphous phase on drying ([2]; temperatures up to 60° C. for four hours): amorphous phase was recovered
- Solid phase after drying under vacuum ([3]; Sample 10: vacuum 5-7 mbar, 23° C., 4 hours): amorphous
- Solid phase after drying under vacuum ([3]; Sample 11: vacuum 5-7 mbar, 23° C., 8 hours): amorphous
- Solid phase after drying under vacuum ([3]; Sample 12: vacuum 5-7 mbar, 23° C., 16 hours): amorphous
- Solid phase after drying under vacuum ([3]; Sample 13: vacuum 5-7 mbar, 23° C., 24 hours): amorphous
- Solid phase after drying under vacuum ([3]; Sample 14: vacuum 5-7 mbar, 40° C., 4 hours): amorphous
- Solid phase after drying under vacuum ([3]; Sample 15: vacuum 5-7 mbar, 40° C., 8 hours): amorphous
- Solid phase after drying under vacuum ([3]; Sample 16: vacuum 5-7 mbar, 40° C., 16 hours): amorphous + phase I
- Solid phase after drying under vacuum ([3]; Sample 17: vacuum 5-7 mbar, 40° C., 24 hours): amorphous + phase I
- Solid phase after drying under vacuum ([3]; Sample 18: vacuum 5-7 mbar, 60° C., 4 hours): amorphous
- Solid phase after drying under vacuum ([3]; Sample 19: vacuum 5-7 mbar, 60° C., 8 hours): amorphous + phase I
- Solid phase after drying under vacuum ([3]; Sample 20: vacuum 5-7 mbar, 60° C., 16 hours): phase I
- Solid phase after drying under vacuum ([3]; Sample 21: vacuum 5-7 mbar, 60° C., 24 hours): phase I
- Time after which the amorphous phase began to crystallize ([3]; vacuum 5-7 mbar, 40° C.): 16 h
- Time after which phase I could be clearly identified ([3]; vacuum 5-7 mbar, 60° C.): 16 h
- Time after which the amorphous phase began to crystallize ([3]; vacuum 5-7 mbar, 60° C.): 8 h
- Stability of the amorphous phase on drying under vacuum ([3]; vacuum 5-7 mbar, room temperature, up to 24 hours): did not change after drying
